Measurements published in US7868188B2, “5-heteroaryl thiazoles and their use as PI3K inhibitors” (AstraZeneca AB, priority 2004, dated 2011).
Counter-ions that a name gives are not always drawn.

How the values were obtained:
[1] = molecular target: mTOR PI kinase-related kinase (Homo sapiens, UniProt P42345); experiment: Test (b) In Vitro mTOR PI Kinase-Related Kinase Assay (AlphaScreen); assay type: biochemical; conditions: read-out: IC50 versus mTOR PI kinase-related kinase
Method: The assay used AlphaScreen technology (Gray et al., Analytical Biochemistry, 2003, 313: 234-245) to determine the ability of test compounds to inhibit phosphorylation by recombinant mTOR.
The HEK293 FLAG-tagged mTOR (1362-2549) stable cell line was routinely maintained at 37° C. with 5% CO2 up to a confluency of 70-90% in Dulbecco's modified Eagle's growth medium (DMEM; Invitrogen Limited, Paisley, UK Catalogue No. 41966-029) containing 10% heat-inactivated foetal calf serum (FCS; Sigma, Poole, Dorset, UK, Catalogue No. F0392), 1% L-glutamine (Gibco, Catalogue No. 25030-024) and 2 mg/ml Geneticin (G418 sulphate; Invitrogen Limited, UK Catalogue No. 10131-027). Following expression in the mammalian HEK293 cell line, expressed protein was purified using the FLAG epitope tag using standard purification techniques.
Test compounds were prepared as 10 mM stock solutions in DMSO and diluted into water as required to give a range of final assay concentrations. Aliquots (2 μl) of each compound dilution were placed into a well of a Greiner 384-well low volume (LV) white polystyrene plate (Greiner Bio-one). […]
Each reaction was stopped by the addition of 10 μl of a mixture of EDTA (50 mM), bovine serum albumin (BSA; 0.5 mg/ml) and Tris-HCl pH7.4 buffer (50 mM) containing p70 S6 Kinase (T389) 1A5 Monoclonal Antibody (Cell Signalling Technology, Catalogue No. 9206B) and AlphaScreen Streptavidin donor and Protein A acceptor beads (200 ng; Perkin Elmer, Catalogue No. 6760002B and 6760137R respectively) were added and the assay plates were left for about 20 hours at room temperature in the dark. The resultant signals arising from laser light excitation at 680 nm were read using a Packard Envision instrument.
Phosphorylated biotinylated peptide is formed in situ as a result of mTOR mediated phosphorylation. […] Upon laser light excitation at 680 nm, the donor bead: acceptor bead complex produces a signal that can be measured. […]
mTOR enzyme inhibition for a given test compound was expressed as an IC50 value.

[2] = tested on: phosphorylation of Serine 473 in Akt (MDA-MB-468 cells); experiment: Test (c) In Vitro phospho-Ser473 Akt Assay; assay type: cell-based; conditions: Homo sapiens, read-out: IC50 versus Serine 473 in Akt
Method: This assay determines the ability of test compounds to inhibit phosphorylation of Serine 473 in Akt as assessed using Acumen Explorer technology (Acumen Bioscience Limited), a plate reader that can be used to rapidly quantitate features of images generated by laser-scanning.
A MDA-MB-468 human breast adenocarcinoma cell line (LGC Promochem, Teddington, Middlesex, UK, Catalogue No. HTB-132) was routinely maintained at 37° C. with 5% CO2 up to a confluency of 70-90% in DMEM containing 10% heat-inactivated FCS and 1% L-glutamine.
For the assay, the cells were detached from the culture flask using ‘Accutase’ (Innovative Cell Technologies Inc., San Diego, Calif., USA; Catalogue No. AT104) using standard tissue culture methods and resuspended in media to give 1.7×10^5 cells per ml. Aliquots (90 μl) were seeded into each of the inner 60 wells of a black Packard 96 well plate (PerkinElmer, Boston, Mass., USA; Catalogue No. 6005182) to give a density of ˜15000 cells per well. Aliquots (90 μl) of culture media were placed in the outer wells to prevent edge effects. The cells were incubated overnight at 37° C. with 5% CO2 to allow them to adhere.
On day 2, the cells were treated with test compounds and incubated for 2 hours at 37° C. with 5% CO2. Test compounds were prepared as 10 mM stock solutions in DMSO and serially diluted as required with growth media to give a range of concentrations that were 10-fold the required final test concentrations. Aliquots (10 μl) of each compound dilution were placed in a well (in triplicate) to give the final required concentrations. As a minimum response control, each plate contained wells having a final concentration of 100 μM LY294002 (Calbiochem, Beeston, UK, Catalogue No. 440202). As a maximum response control, wells contained 1% DMSO instead of test compound. Following incubation, the contents of the plates were […] by treatment with a 1.6% aqueous formaldehyde solution (Sigma, Poole, Dorset, UK, Catalogue No. F1635) at room temperature for 1 hour.
All subsequent aspiration and wash steps were carried out using a Tecan 96 well late washer (aspiration speed 10 mm/sec). The fixing solution was removed and the contents of the plates were washed with phosphate-buffered saline (PBS; 50 μl; Gibco, Catalogue No. 10010015). The contents of the plates were treated for 10 minutes at room temperature with an aliquot (50 μl) of a cell permeabilisation buffer consisting of a mixture of PBS and 0.5% Tween-20. […] An aliquot of PBS (50 μl) was added to each well and the plates were sealed with black plate sealers and the fluorescence signal was detected and analysed.
Fluorescence dose response data obtained with each compound were analysed and the degree of inhibition of Serine 473 in Akt was expressed as an IC50 value.

mTOR PI kinase-related kinase, sequence (P42345 1362-2549): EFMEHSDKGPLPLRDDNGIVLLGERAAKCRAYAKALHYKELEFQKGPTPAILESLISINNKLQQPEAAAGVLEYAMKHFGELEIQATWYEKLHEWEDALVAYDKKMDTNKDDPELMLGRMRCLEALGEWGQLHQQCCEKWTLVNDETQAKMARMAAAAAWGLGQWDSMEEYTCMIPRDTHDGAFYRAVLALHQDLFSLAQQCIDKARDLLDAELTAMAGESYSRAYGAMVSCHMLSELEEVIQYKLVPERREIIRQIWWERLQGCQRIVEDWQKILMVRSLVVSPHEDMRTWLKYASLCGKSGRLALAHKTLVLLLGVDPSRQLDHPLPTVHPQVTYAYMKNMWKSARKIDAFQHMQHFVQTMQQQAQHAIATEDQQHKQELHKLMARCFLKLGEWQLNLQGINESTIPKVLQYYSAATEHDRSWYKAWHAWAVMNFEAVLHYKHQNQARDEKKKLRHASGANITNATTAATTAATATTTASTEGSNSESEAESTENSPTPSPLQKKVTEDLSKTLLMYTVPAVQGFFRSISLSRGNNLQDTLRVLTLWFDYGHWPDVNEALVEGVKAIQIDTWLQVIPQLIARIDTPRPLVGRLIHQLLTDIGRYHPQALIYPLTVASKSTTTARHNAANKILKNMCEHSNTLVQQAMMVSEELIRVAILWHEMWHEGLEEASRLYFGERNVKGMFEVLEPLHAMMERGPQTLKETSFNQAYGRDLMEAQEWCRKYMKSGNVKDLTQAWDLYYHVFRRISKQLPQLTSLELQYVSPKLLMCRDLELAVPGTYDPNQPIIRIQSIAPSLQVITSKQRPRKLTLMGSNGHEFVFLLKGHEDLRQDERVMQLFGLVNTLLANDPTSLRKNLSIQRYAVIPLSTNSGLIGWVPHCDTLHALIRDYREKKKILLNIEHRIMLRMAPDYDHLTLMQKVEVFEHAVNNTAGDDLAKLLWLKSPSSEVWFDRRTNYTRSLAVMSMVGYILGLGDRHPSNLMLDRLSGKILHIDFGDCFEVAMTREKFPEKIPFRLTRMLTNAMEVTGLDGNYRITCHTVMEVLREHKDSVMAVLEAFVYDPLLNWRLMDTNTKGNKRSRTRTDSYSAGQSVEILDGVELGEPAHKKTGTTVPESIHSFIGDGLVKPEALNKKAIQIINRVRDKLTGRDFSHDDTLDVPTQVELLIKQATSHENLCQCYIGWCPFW

IC50 [1] [µM]	IC50 [2] [µM]	SMILES
~0.7	~0.2	CC(=O)Nc1nc(C)c(-c2cnc(Cl)c(S(=O)(=O)Nc3ccccc3)c2)s1 [Compound No. 4 within Example 73, N-{5-[6-Chloro-5-(N-phenylsulfamoyl)pyridin-3-yl]-4-methyl-1,3-thiazol-2-yl]acetamide]
~0.02	~0.3	CC(=O)Nc1nc(C)c(-c2cnc(Cl)c(NS(C)(=O)=O)c2)s1 [Example 28, N-[5-(6-Chloro-5-methylsulfonylaminopyridin-3-yl)-4-methyl-1,3-thiazol-2-yl]acetamide trifluoroacetate]
~2	~0.2	CC(=O)Nc1nc(C)c(-c2cnc(Cl)c(NCc3ccc(F)cc3)c2)s1 [Compound No. 3 within Example 79, N-{5-[6-Chloro-5-(4-fluorobenzylamino)pyridin-3-yl]-4-methyl-1,3-thiazol-2-yl}acetamide]
